Data on 3 compounds can be found in patent US5525617A, “Fibrinogen receptor antagonists” (Merck & Co., Inc., priority 1994, dated 1996).

Molecules are shown by their SMILES.

The term IC50 denotes the concentration that inhibits the measured activity by half. Lower therefore signals higher potency.

In the experiment the test system is gel-filtered human platelets. Nature of the experiment: in vitro ADP-stimulated platelet aggregation (inhibition). Format: cell-based. The conditions noted are these: gel-filtered human platelets 2×10^8 per ml, fibrinogen 100 micrograms per ml, Ca^2+ 1 mM, 10 mM ADP, 37° C., Chronolog aggregometer. The protocol: Platelet aggregation is measured at 37° C. in a Chronolog aggregometer. The reaction mixture contains gel-filtered human platelets (2×10^8 per ml), fibrinogen (100 micrograms per ml (ug/ml)), Ca^2+ (1 mM), and the compound to be tested. The aggregation is initiated by adding […] ADP 1 minute after the other components are added. The reaction is then allowed to proceed for at least 2 minutes. The extent of inhibition of aggregation is expressed as the percentage of the rate of aggregation observed in the absence of inhibitor. The IC50 is the dose of a particular compound inhibiting aggregation by 50% relative to a control lacking the compound.
In addition to the following preparative procedures, several examples of in vitro bioactivity of compounds within the scope of the present invention are indicated. To illustrate, one test which is used to evaluate fibrinogen receptor antagonist activity is based on evaluation of inhibition of ADP-stimulated platelets. Aggregation requires that fibrinogen bind to and occupy the platelet fibrinogen receptor site. Inhibitors of fibrinogen binding inhibit aggregation. In the ADP-stimulated platelet aggregation assay used to determine inhibition associated with the compounds claimed in the instant invention, human platelets are isolated from fresh blood, collected into acid citrate/dextrose by differential centrifugation followed by gel filtration on Sepharose 2B in divalent ion-free Tyrode's buffer (pH 7.4) containing 2% bovine serum albumin.
On to `O=C(O)CCNC(=O)c1ccc2c(c1)C(=O)C(CCC1CCNCC1)C2` (stereo not drawn), for which the IC50 was found to be 2300 nM.

In turn, `CCCCS(=O)(=O)N[C@@H](CNC(=O)c1ccc2c(c1)C(=O)C(CCC1CCNCC1)C2)C(=O)O` (stereo partly drawn) showed an IC50 of 9 nM. Against the preceding compound, the IC50 is about 260-fold lower.

`CCCCS(=O)(=O)N[C@@H](CNC(=O)c1ccc2c(c1)CC(CCC1CCNCC1)C2)C(=O)O` (stereo partly drawn) returned a concentration for half-maximal inhibition (IC50) of 14 nM. This IC50 is about 1.6-fold higher than that of the compound before.
